{"source": "patent US7381542B2", "about": "“Nucleic acids encoding a biogenic amine receptor” (Oregon Health & Science University, priority 2001, dated 2008)", "key": {"[1]": {"target": "T1, rat trace amine receptor (Rattus norvegicus, UniProt Q923Y9, L170Q/L53I/P183L/R211E/S15R)", "T1 construct": "expression vector containing the full-length rat cDNA clone described above; expressed in transfected cells", "T1 sequence (Q923Y9 whole entry S15R/L53I/L170Q/P183L/R211E)": "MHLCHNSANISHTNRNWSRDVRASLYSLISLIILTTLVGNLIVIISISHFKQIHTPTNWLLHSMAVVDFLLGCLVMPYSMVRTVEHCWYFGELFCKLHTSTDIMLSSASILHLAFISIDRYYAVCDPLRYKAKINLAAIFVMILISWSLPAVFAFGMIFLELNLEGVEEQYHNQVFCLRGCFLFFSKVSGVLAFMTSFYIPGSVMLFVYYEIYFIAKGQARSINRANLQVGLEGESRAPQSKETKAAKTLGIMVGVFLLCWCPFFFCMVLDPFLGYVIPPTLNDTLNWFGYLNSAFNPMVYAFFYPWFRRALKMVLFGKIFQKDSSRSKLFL", "test": "cell-based", "assay_type": "cell-based", "settings": "for Emax: HEK293, percent of stimulation by p-tyramine, read-out: Maximal Stimulation (% ± SEM)"}, "[2]": {"target": "T2, human trace amine receptor (Homo sapiens, UniProt Q96RJ0, S183L/Y279S)", "T2 construct": "expressed in transfected cells; host or cells: HEK 293 cells, pcDNA 3.1 vector (construct H2-3 pcDNA3.1)", "T2 sequence (Q96RJ0 1-339 S183L/Y279S)": "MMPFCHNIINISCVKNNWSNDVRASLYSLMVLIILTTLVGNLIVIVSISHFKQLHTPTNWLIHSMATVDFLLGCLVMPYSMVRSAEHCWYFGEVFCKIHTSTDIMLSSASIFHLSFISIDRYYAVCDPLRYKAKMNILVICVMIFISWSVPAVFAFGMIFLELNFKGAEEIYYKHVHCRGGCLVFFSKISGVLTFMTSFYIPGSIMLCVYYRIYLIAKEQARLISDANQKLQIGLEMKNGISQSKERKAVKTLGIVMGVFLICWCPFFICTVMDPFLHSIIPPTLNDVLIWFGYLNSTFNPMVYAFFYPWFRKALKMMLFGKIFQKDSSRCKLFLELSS", "test": "MAP kinase pathway (Elk-gal/luciferase reporter) stimulation in HEK 293 cells transfected with H2-3 pcDNA3.1", "assay_type": "cell-based", "settings": "compared with cells incubated in the absence of the ligand; receptor-transfected HEK 293 cells", "from_the_text": "(§1) Control cells were transfected with pcDNA3.1 without the rat trace amine receptor sequences. All cells were also co-transfected with 2 additional constructs: one (elk-gal) that encoded the yeast transcription factor gal under the transcriptional control of an Elk-responsive promoter, and another encoding firefly luciferase under the transcriptional control of a gal-responsive promoter."}, "[3]": {"test_system": "HEK 293 cells transfected with pcDNA3.1", "test": "MAP kinase pathway luciferase reporter in control HEK 293 cells transfected with pcDNA3.1 without receptor", "assay_type": "cell-based, human", "settings": "compared with cells incubated in the absence of the ligand", "from_the_text": "as §1"}, "[4]": {"settings": "Table III, cAMP, 1 hour at 37° C., 100 μM IBMX, read-out: EC50 (nM ± SEM)"}, "[5]": {"settings": "untitled table after Table III, first value column, read-out: EC50 (nM), NEUROTRANSMITTERS, first column"}, "[6]": {"settings": "untitled table after Table III, second value column, read-out: EC50 (nM), NEUROTRANSMITTERS, second column (no head of its own)"}, "[7]": {"settings": "EC50 (nM), NEUROTRANSMITTERS, first column"}, "[8]": {"settings": "EC50 (nM), NEUROTRANSMITTERS, second column (no head of its own)"}, "[9]": {"settings": "untitled table after Table III, drugs, read-out: EC50 (nM), DRUGS"}}, "note": "“Also recorded” adds a separate entry of the source. Read-outs that look alike come from different tables or passages of the source.", "data": [{"smiles": "COc1cc(CCN)ccc1O", "note": "[3-methoxytyramine]", "values": [{"measurement": "potency relative to precursor catecholamines dopamine, norepinephrine, epinephrine", "setting": "[1]", "value": "significantly more potent; also recorded: more potently activated"}]}, {"smiles": "NCCc1c[nH]c2ccc(O)cc12", "note": "[5-hydroxytryptamine]", "values": [{"measurement": "fold stimulation (luciferase), H2-3 pcDNA3.1", "setting": "[2]", "value": 1.22, "unit": "fold"}, {"measurement": "fold stimulation (luciferase), pcDNA3.1", "setting": "[3]", "value": 1, "unit": "fold"}, {"measurement": "Emax", "setting": "[1]; Table III", "value": "47 ± 9", "unit": "%"}, {"measurement": "EC50", "setting": "[1]; [4]", "value": "12800 ± 4180", "unit": "nM"}, {"measurement": "EC50", "setting": "[1]; [5]", "value": 1910, "unit": "nM"}, {"measurement": "EC50", "setting": "[1]; [6]", "value": 8000, "unit": "nM"}]}, {"smiles": "CN1CC=C(c2ccccc2)CC1", "note": "[MPTP, 1-methyl 4phenyl-1,2,3,6-tetrahydropyridine]", "values": [{"measurement": "EC50", "setting": "[1]; [4]", "value": "99 ± 11", "unit": "nM"}]}, {"smiles": "NCC(O)c1ccc(O)cc1", "note": "(centres unmarked) [Octopamine]", "values": [{"measurement": "EC50", "setting": "[1]; EC50 (nM ± SEM)", "value": "1300 ± 350", "unit": "nM"}, {"measurement": "EC50", "setting": "[1]; [7]", "value": 874, "unit": "nM"}, {"measurement": "EC50", "setting": "[1]; [8]", "value": 1400, "unit": "nM"}]}, {"smiles": "NCCc1ccccc1", "note": "[Phenethylamine, β-phenethylamine]", "values": [{"measurement": "EC50", "setting": "[1]; [4]", "value": "237 ± 71", "unit": "nM"}, {"measurement": "EC50", "setting": "[1]; [5]", "value": 218, "unit": "nM"}, {"measurement": "EC50", "setting": "[1]; [6]", "value": 124, "unit": "nM"}]}, {"smiles": "CN[C@H](C)Cc1ccccc1", "note": "[R-methamphetamine]", "values": [{"measurement": "EC50", "setting": "[1]; [9]", "value": 236, "unit": "nM"}]}, {"smiles": "CN[C@@H](C)Cc1ccccc1", "note": "[S-methamphetamine]", "values": [{"measurement": "EC50", "setting": "[1]; [9]", "value": 188, "unit": "nM"}]}, {"smiles": "C=CCN1CCc2c(cc(O)c(O)c2Cl)C(c2ccccc2)C1", "note": "(centres unmarked) [SKF82958]", "values": [{"measurement": "fold stimulation (luciferase), pcDNA3.1", "setting": "[3]", "value": 0.79, "unit": "fold"}]}, {"smiles": "CNCC(O)c1ccc(O)cc1", "note": "(centres unmarked) [Synephrine]", "values": [{"measurement": "EC50", "setting": "[1]; [4]", "value": "584 ± 100", "unit": "nM"}]}, {"smiles": "NCCc1c[nH]c2ccccc12", "note": "[Tryptamine]", "values": [{"measurement": "EC50", "setting": "[1]; [4]", "value": "309 ± 76", "unit": "nM"}, {"measurement": "EC50", "setting": "[1]; [5]", "value": 248, "unit": "nM"}, {"measurement": "EC50", "setting": "[1]; [6]", "value": 519, "unit": "nM"}]}, {"smiles": "CN1C[C@H](C(=O)N[C@]2(C)O[C@@]3(O)[C@@H]4CCCN4C(=O)[C@H](Cc4ccccc4)N3C2=O)C[C@@H]2c3cccc4[nH]cc(c34)C[C@H]21", "note": "[dihydroergotamine]", "values": [{"measurement": "activation of the trace amine receptor (cAMP production), in words", "setting": "[1]; listed as dihydroergotsmnine", "value": "stimulate camp production"}]}, {"smiles": "N[C@@H](CCC(=O)O)C(=O)O", "note": "[glutamate]", "values": [{"measurement": "activation of the trace amine receptor (cAMP production), in words", "setting": "[1]", "value": "not activated"}]}, {"smiles": "COc1cc(CC(=O)O)ccc1O", "note": "[homovanillic acid, 3-methoxy4-hydroxyphenylacetic acid]", "values": [{"measurement": "activation of the trace amine receptor (cAMP production), in words", "setting": "[1]", "value": "no detectable activity"}]}, {"smiles": "NCCc1cccc(O)c1", "note": "[m-tyramine]", "values": [{"measurement": "EC50", "setting": "[1]; [4]", "value": "5370 ± 1180", "unit": "nM"}, {"measurement": "EC50", "setting": "[1]; [5]", "value": 7190, "unit": "nM"}, {"measurement": "EC50", "setting": "[1]; [6]", "value": 5800, "unit": "nM"}]}, {"smiles": "CNCC(O)c1ccc(O)c(OC)c1", "note": "(stereo not drawn) [metanephrine, 3-methoxy-β-4-dihydroxy-N-methyl-β-phenethylamine]", "values": [{"measurement": "potency relative to precursor catecholamines dopamine, norepinephrine, epinephrine", "setting": "[1]", "value": "significantly more potent; also recorded: more potently activated"}]}, {"smiles": "COc1cc(C(O)CN)ccc1O", "note": "(stereo not drawn) [normetanephrine, 3-methoxy-β-4-dihydroxy-β-phenethylamine]", "values": [{"measurement": "potency relative to precursor catecholamines dopamine, norepinephrine, epinephrine", "setting": "[1]", "value": "significantly more potent; also recorded: more potently activated"}]}, {"smiles": "COc1ccc(CCN)cc1", "note": "[p-methoxy PEA]", "values": [{"measurement": "EC50", "setting": "[1]; [9]", "value": 346, "unit": "nM"}]}, {"smiles": "NCCc1ccc(O)cc1", "note": "[p-tyramine]", "values": [{"measurement": "EC50", "setting": "[1]; EC50 (nM ± SEM)", "value": "69 ± 9", "unit": "nM"}, {"measurement": "EC50", "setting": "[1]; EC50 (nM), DRUGS", "value": 20.2, "unit": "nM"}, {"measurement": "EC50", "setting": "[1]; [7]", "value": 44.9, "unit": "nM"}, {"measurement": "EC50", "setting": "[1]; [8]", "value": 82, "unit": "nM"}, {"measurement": "Emax", "setting": "[1]; Table III", "value": 100, "unit": "%"}]}]}
